This is an account of results in patent US11447523B2, “Methods for reducing CD36 expression” (Cornell Research Foundation, Inc., priority 2005, dated 2022).

Entries after “also recorded” stand apart in the source; their conditions may differ.

The test system of assay [1] is CD36. Kind of assay: CD36 immunostaining in isolated hearts after cold ischemic storage and warm reperfusion. On the set-up: species or system guinea pig. To be noted: 1 nM SS-31 or 100 nM SS-20 in St. Thomas solution, 18 h at 4° C., 90 min reperfusion at 34° C. How it is done: Isolated guinea pig hearts were perfused with St. Thomas solution alone, or St. Thomas solution containing 1 nM SS-31 or 100 nM SS-20, for 3 min. and then stored in the same solution at 4° C. for 18 hours. After ischemic storage, hearts were reperfused with 34° C. Kreb-Henseleit solution for 90 min. Hearts freshly isolated from guinea pigs were used as controls.
The hearts were fixed in paraffin and sliced for immunostaining with an anti-CD36 rabbit polyclonal antibody. Two sections are shown for each treatment group. […] The “background” (FIGS. 12A and 12B) represents two sections from a normal non-ischemic heart that was not treated with the primary antibody. “Normal heart” (FIGS. 12C and 12D) represents two sections obtained from a non-ischemic heart.

Assay [2] concerns mouse peritoneal macrophages. Kind of assay: oxLDL-induced foam cell formation (oil red O) in macrophages. The assay is classed as cell-based. The settings on record: SS-31 1 μM, oxLDL 48 h. The source says:
Foam cell is indicated by oil red O which stains lipid droplets red.

The test system of assay [3] is CD36. Kind of assay: CD36 immunostaining on renal tubular cells after unilateral ureteral obstruction (UUO). The assay is classed as in vivo, Sprague-Dawley rats. To be noted: rats, SS-31 1 mg/kg ip one day before UUO and daily for 14 days. The method, then: UUO was performed in Sprague-Dawley rats. The rats were treated with saline (ip, n=6) or SS-31 (1 mg/kg ip, n=6) one day prior to induction of UUO, and once a day for 14 days after UUO. Rats were killed, kidneys removed, embedded in paraffin and sectioned. The slides were treated with the anti-CD36 polyclonal IgG (Santa Cruz #sc-9154; 1:100 with blocking serum) at room temperature for 1.5 hours. The slides were then incubated with the second antibody conjugated with biotin (anti-rabbit IgG-G1; ABC kit, PK-6101) at room temperature for 30 min. The slides were then treated with avidin, developed with DAB and counterstained with 10% hematoxylin. The contralateral unobstructed kidney served as the control for each animal.

Assay [4] relates to diabetic mice. Kind of assay: Streptozotocin (STZ)-induced diabetic mice, renal damage. The assay is classed as in vivo, CD-1 mice. How it is done: Streptozotocin (STZ) was used to induce diabetes in mice. Three groups of CD-1 mice were studied. Group I—no STZ treatment; Group II—STZ (50 mg/kg, ip) was given once a day for 5 d; Group III—STZ (50 mg/kg, ip) was given once a day for 5 d, and SS-31 (3 mg/kg, ip) was given once a day for 16 d. […] By week 3, blood glucose values were: Group I (10.6.noteq.0.27 mmol/L); Group II (24.5.noteq.1.15 mmol/L); Group III (21.3 1.48 mmol/L). Animals were sacrificed after 3 weeks and kidney tissues preserved for histopathology. Kidney sections were examined by Periodic Schiff (PAS) staining for renal tubular brush border.
In mice not treated with STZ, the renal brush border in the cortex was stained red with PAS (FIG. 16A, see white arrows).
Kidney sections were examined for apoptosis using the TUNEL assay. After deparaffinization, sections were incubated with deoxynucleotidyl transferase (Tdt) with digoxigenin-dNTP for 1 hour. The reaction was stopped with terminating buffer. A fluorescent anti-digoxigenin antibody was then applied.

For assay [5], the system named is CD36 knock-out mice subjected to acute cerebral ischemia. Kind of assay: Acute cerebral ischemia in CD36 knockout mice. The assay is classed as in vivo, mouse. To be noted: CD36 KO mice. How it is done: CD36 knockout (CD36 KO) mice were subjected to acute cerebral ischemia as described under Example 2. CD36 KO mice were given either saline vehicle (Veh) (ip, n=5) or SS-31 (2 mg/kg, i.p. n=5) at 0, 6, 24 and 48 h after 30 min ischemia.

Assay [6] has as its system CD36. Kind of assay: CD36 mRNA (real time PCR) in post-ischemic brain of wild-type mice. Type of assay: in vivo, mouse. The settings on record: WT mice, SS-31 5 mg/kg ip at 0 and 6 h after 30 min ischemia. How it is done:
Wild-type mice were given saline vehicle (Veh, i.p., n=6) or SS-31 (5 mg/kg, i.p., n=6) at 0 and 6 h after 30 min ischemia, and CD36 mRNA levels were determined using real time PCR.
On the technique in general: Real-time PCR tracks product formation cycle by cycle.

For assay [7], the system named is wild-type mice subjected to acute cerebral ischemia. Kind of assay: Acute cerebral ischemia (30 min middle cerebral artery occlusion) in wild-type mice. Type of assay: in vivo, mouse. The settings on record: WT mice. The method, then:
Cerebral ischemia was induced by occlusion of the right middle cerebral artery for 30 min. Wild-type (WT) mice were given either saline vehicle (Veh) (ip, n=19) or SS-31 (2 mg/kg or 5 mg/kg, ip, n=6) at 0, 6, 24 and 48 h after ischemia. Mice were killed 3 days after ischemia. Brains were removed, frozen, and sectioned. Brain sections were stained by the Nissl stain. Infarct volume and hemispheric swelling was determined using an image analyzer. Data were analyzed by one-way ANOVA with posthoc analysis.
(*P<0.05 compared to Veh).

Assay [8] relates to isolated guinea pig hearts. Kind of assay: Isolated hearts: lipid peroxidation, endothelial apoptosis and coronary flow after cold ischemia and warm reperfusion. The settings on record: 1 nM SS-31 or 100 nM SS-20 in St. Thomas solution. How it is done: Guinea pig hearts were perfused with a cardioplegic solution (St. Thomas solution) alone or St. Thomas solution containing either 1 nM SS-31 or 100 nM SS-20 for 3 min. and then subjected to 18 hours of cold ischemia (4° C.). The hearts were then reperfused with Krebs Henseleit buffer at 34° C. for 90 min. Immunohistochemical analysis of 4-hydroxynonenol (HNE)-modified proteins in paraffin sections from tissue slices were performed by incubation with an anti-HNE antibody (Santa Cruz) and a fluorescent secondary antibody. […] HNE staining was reduced in hearts stored in SS-31 (FIG. 13C) or SS-20 (FIG. 13D).
Guinea pig heats were perfused with a cardioplegic solution (St. Thomas solution) alone or St. Thomas solution containing either 1 nM SS-31 or 100 nM SS-20 for 3 min. and then subjected to 18 hours of cold ischemia (4° C.). The hearts were then reperfused with Krebs Henseleit buffer at 34° C. for 90 min. After deparaffinization, sections were incubated with deoxynucleotidyl transferase (Tdt) with digoxigenin-dNTP for 1 hour. The reaction was stopped with terminating buffer. A fluorescent anti-digoxigenin antibody was then applied.
A significant improvement of coronary blood flow after prolonged cold ischemic storage and warm reperfusion occurred (FIG. 15). Guinea pigs hearts were perfused with a cardioplegic solution (St. Thomas solution) alone or St. Thomas solution containing either 1 nM SS-31 (FIG. 15A) or 100 nM SS-20) (FIG. 15B) for 3 min. and then subjected to 18 hours of cold ischemia (4° C.). The hearts were then reperfused with Krebs Henseleit buffer at 34° C. for 90 min.

Where [9] appears, read: SS-31 2 mg/kg ip at 0, 6, 24, 48 h, vs saline.
Setting [10] is: SS-31 2 mg/kg or 5 mg/kg ip at 0, 6, 24, 48 h after ischemia, vs saline, P<0.05.
Setting [11] is: 18 h at 4° C., 90 min reperfusion.

Regarding D-Arg-2′6′Dmt-Lys-Phe-NH2 [SS-31], the “CD36 staining in stored hearts” value in assay [1] is “significantly reduced; also recorded: did not show the upregulation of CD36 expression”. The “oxLDL-induced foam cell formation” value in assay [2] is on record as “prevented oxLDL-induced foam cell formation; also recorded: reduced”. For the same substance, the “CD36 expression on tubular cells of obstructed kidney” value in assay [3] is “significant reduction in CD36 expression; also recorded: suppresses the upregulation of CD36; also recorded: decreases CD36 expression”. The “blood glucose by week 3” value in assay [4] (Group III: STZ 50 mg/kg ip 5 d + SS-31 3 mg/kg ip daily 16 d (STZ alone 24.5, no STZ 10.6)) is 21.3 mmol/L. Further, the “effect on blood glucose (in words)” value in assay [4] (STZ mice, SS-31 3 mg/kg ip daily) is “without affecting blood glucose”. Moreover, in assay [4] (STZ mice, SS-31 3 mg/kg ip daily, 3 weeks), the “architecture of the proximal renal tubules” value is reported as “architecture of the proximal renal tubules was preserved”. Further, the “apoptotic cells in proximal tubule (TUNEL)” value in assay [4] (STZ mice, SS-31 3 mg/kg ip daily, 3 weeks, 3 mg/kg) was “dramatically reduced apoptotic cells in the proximal tubule; also recorded: inhibit tubular cell apoptosis; also recorded: significantly reduced”. Moreover, the “GSH depletion in the ipsilateral cortex” value in assay [5] (SS-31 2 mg/kg ip) is “failed to further prevent GSH depletion; also recorded: did not reduce GSH depletion”. Also, in assay [5] (setting [9]), the hemispheric swelling result was “no effect” and the infarct volume result is recorded as “no effect in reducing infarct volume”. Also, the “CD36 mRNA in the ipsilateral brain” value in assay [6] is listed as “significantly reduced; also recorded: reduced CD36 mRNA expression”. In addition, in assay [7] (SS-31 2 mg/kg ip at 0, 6, 24, 48 h), the “depletion of GSH in the striatum” value is listed as “reduced by SS-31 treatment but did not reach statistical significance”. Moreover, in assay [7] (SS-31 2 mg/kg ip at 0, 6, 24, 48 h, 2 mg/kg), the “depletion of GSH in the ipsilateral cortex” value is given as “significantly reduced; also recorded: reduced the decrease in reduced glutathione (GSH)”. Moreover, in assay [7] (setting [10]), the hemispheric swelling result is given as “significant reduction; also recorded: reduced” and the infarct volume result is listed as “significant reduction in infarct volume; also recorded: reduced infarct volume”. In assay [8] (setting [11]), the “HNE staining (lipid peroxidation) in stored hearts” value is listed as “reduced” and the “endothelial apoptosis in stored hearts” value is recorded as “Apoptotic cells were not observed”. Besides, the “coronary flow restored, of pre-ischemic flow” value in assay [8] (18 h at 4° C., 90 min reperfusion, pre-ischemic control = 100%) is given as “approximately 80%”. Further, the “coronary flow (in words)” value in assay [8] (18 h cold ischemia, warm reperfusion) was “preserves coronary flow”.
